Measured values: patent publication US11076595B2, “1-(n,n-disubstituted carbamoyl) 4-(substituted sulfonyl)triazolin-5-one derivative, 4-(n,n-disubstituted carbamoyl) 1-(substituted sulfonyl)triazolin-5-one derivative, and herbicide containing said derivative as active ingredient” (HOKKO CHEMICAL INDUSTRY CO., LTD., priority 2017, dated 2021)

What was measured:
Type in all cases: in vivo
Echinochloa crus-galli [1] = assay: Test Example 11: herbicidal effect test by soil treatment in paddy field; details: 120 g/10a active ingredient, 14 days after treatment
In short: (§1)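 Seeds were sown 0-1 cm deep in puddled, fertilised paddy soil in Wagner pots and kept under about 3 cm of flooding in a greenhouse. Diluted emulsifiable concentrate was added dropwise right after sowing at 120 g a.i. per 10 are. Suppression (%) came from dry weight versus untreated pots after 14 days, two replicates.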

Lindernia pyxidaria [2] = assay: as above; details: 120 g/10a active ingredient, 14 days after treatment
In short: as §1

Monochoria vaginalis [3] = assay: as above; details: 120 g/10a active ingredient, 14 days after treatment
In short: as §1

Scirpus juncoides [4] = assay: as above; details: 120 g/10a active ingredient, 14 days after treatment
In short: as §1

Echinochloa crus-galli [5] = assay: Test Example 12: herbicidal effect test by treatment during growing period in paddy field; details: 120 g/10a; treatment seven days after sowing in flooded paddy pot; assessed 14 days after treatment
In short: (§2)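 Read-out: weed suppression (%) = (1 − treated/untreated mean dry weight) × 100, scored 14 days after treatment with two replications. Pots held puddled paddy soil, 30 seeds per species sown 0–1 cm, flooded ~3 cm. Post-emergence dropwise water application at 7 days after sowing, 120 g a.i./10 are.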

Lindernia pyxidaria [6] = assay: as above; details: 120 g/10a; treatment seven days after sowing in flooded paddy pot; assessed 14 days after treatment
In short: as §2

Monochoria vaginalis [7] = assay: as above; details: 120 g/10a; treatment seven days after sowing in flooded paddy pot; assessed 14 days after treatment
In short: as §2

Scirpus juncoides [8] = assay: as above; details: 120 g/10a; treatment seven days after sowing in flooded paddy pot; assessed 14 days after treatment
In short: as §2

Amaranthus viridis [9] = assay: Test Example 13: herbicidal effect test by soil treatment in upland field; details: 120 g/10a, 14 days after treatment
In short: (§3)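 Pre-emergence soil treatment: alluvial soil pots (36 cm^2) sown with 20 seeds per weed species, sprayed one day later with water-diluted emulsifiable concentrate at 100 liter per 10 are, equal to 120 g active ingredient per 10 are. Two replicates; weed suppression (%) from dry weight versus untreated plots at 14 days.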

Chenopodium album [10] = assay: as above; details: 120 g/10a, 14 days after treatment
In short: as §3

Echinochloa crus-galli [11] = assay: as above; details: 120 g/10a, 14 days after treatment
In short: as §3

crabgrass [12] = assay: as above; details: 120 g/10a, 14 days after treatment
In short: as §3

Chenopodium album [13] = assay: Test Example 14: herbicidal effect test by foliage treatment in upland field; details: 7 days after sowing, 120 g/10a, 14 days after treatment
In short: (§4)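 Emulsifiable concentrate, water-diluted, is applied post-emergence to 7-day-old sowings in field soil at 120 g active ingredient per 10 are. The weed suppression rate derives from average dry weights versus untreated controls, measured 14 days later.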

crabgrass [14] = assay: as above; details: 7 days after sowing, 120 g/10a, 14 days after treatment
In short: as §4

Amaranthus viridis [15] = assay: as above; details: 7 days after sowing, 120 g/10a, 14 days after treatment
In short: as §4

Echinochloa crus-galli [16] = assay: as above; details: 7 days after sowing, 120 g/10a, 14 days after treatment
In short: as §4

Row | SMILES | Weed suppression rate (%) Echinochloa crus-galli (Echinochloa crus-galli [1]) | Weed suppression rate (%) Lindemia pyxidaria (Lindernia pyxidaria [2]) | Weed suppression rate (%) Monochoria vaginalis (Monochoria vaginalis [3]) | Weed suppression rate (%) Scirpus juncoides (Scirpus juncoides [4]) | Weed suppression rate (%) Echinochloa crus-galli (Echinochloa crus-galli [5]) | Weed suppression rate (%) Lindemia pyxidaria (Lindernia pyxidaria [6]) | Weed suppression rate (%) Monochoria vaginalis (Monochoria vaginalis [7]) | Weed suppression rate (%) Scirpus juncoides (Scirpus juncoides [8]) | herbicidal effect, Amaranthus viridis (Amaranthus viridis [9]) | herbicidal effect, Chenopodium album (Chenopodium album [10]) | herbicidal effect, Echinochloa crus-galli (Echinochloa crus-galli [11]) | herbicidal effect, Crabgrass (crabgrass [12]) | herbicidal effect, Chenopodium album (Chenopodium album [13]) | herbicidal effect, Crabgrass (crabgrass [14]) | herbicidal effect, Amaranthus viridis (Amaranthus viridis [15]) | herbicidal effect, Echinochloa crus-galli (Echinochloa crus-galli [16])
1 | CC(C)N(C(=O)n1cnn(S(C)(=O)=O)c1=O)c1c(F)cc(F)cc1F [Compound 11-16] | 100% | 100% | 90% | 90% | 100% | 90% | 100% | 100% | 100% | 70% | 100% | 100% | 70% | 100% | 30% | 100%
2 | CC(C)N(C(=O)n1cnn(S(C)(=O)=O)c1=O)c1ccc(F)cc1Cl [Compound 11-19] | 90% | 80% | 80% | 90% | 90% | 80% | 80% | 90% | 90% | 80% | 80% | 90% | 80% | 90% | 90% | 80%
3 | Cc1ccc(N(C(=O)n2cnn(S(C)(=O)=O)c2=O)C(C)C)c(F)c1 [Compound 11-26] | 90% | 80% | 80% | 90% | 90% | 80% | 80% | 90% | 90% | 80% | 80% | 90% | 80% | 90% | 90% | 80%
4 | CC(C)N(C(=O)n1cnn(S(C)(=O)=O)c1=O)c1ccc(Cl)cn1 [Compound 11-38] | 100% | 80% | 70% | 70% | 100% | 90% | 80% | 90% | 0% | 40% | 90% | 90% | 0% | 90% | 0% | 90%
5 | CCS(=O)(=O)n1ncn(C(=O)N(c2ccc(F)cc2F)C(C)C)c1=O [Compound 11-46] | 100% | 100% | 100% | 90% | 100% | 100% | 90% | 90% | 100% | 100% | 100% | 100% | 90% | 100% | 60% | 100%
6 | CC(C)N(C(=O)n1cnn(S(=O)(=O)C(C)C)c1=O)c1ccccc1 [Compound 11-48] | 90% | 80% | 80% | 90% | 90% | 70% | 90% | 70% | 90% | 80% | 80% | 90% | 70% | 100% | 40% | 90%
7 | CC(C)N(C(=O)n1cnn(S(=O)(=O)C(C)C)c1=O)c1cccc(F)c1F [Compound 11-58] | 100% | 100% | 100% | 100% | 100% | 100% | 100% | 100% | 70% | 70% | 100% | 90% | 70% | 100% | 30% | 90%
8 | CC(C)N(C(=O)n1cnn(S(=O)(=O)C(C)C)c1=O)c1ccc(F)cc1F [Compound 11-59] | 100% | 100% | 100% | 100% | 100% | 80% | 100% | 90% | 90% | 100% | 100% | 100% | 80% | 90% | 90% | 80%
9 | CC(C)N(C(=O)n1cnn(S(=O)(=O)C(C)C)c1=O)c1c(F)cccc1F [Compound 11-61] | 100% | 100% | 80% | 100% | 100% | 100% | 100% | 80% | 90% | 80% | 100% | 100% | 70% | 100% | 70% | 100%
10 | CC(C)N(C(=O)n1cnn(S(=O)(=O)C(C)C)c1=O)c1ccc(F)c(F)c1F [Compound 11-62] | 100% | 100% | 90% | 100% | 100% | 80% | 100% | 100% | 100% | 60% | 70% | 70% | 90% | 100% | 100% | 100%
